From patent US20190062277A1, “FARNESOID X RECEPTOR AGONISTS AND USES THEREOF” (Metacrine, Inc., priority 2015, published 2019)
pEC50: −log10 of the molar value.

What was measured:
[1] = target: T1, FXR (Homo sapiens, UniProt Q96RI1); experiment: In Vitro FXR Assay (TK), luciferase reporter in transfected CV-1 cells; type: cell-based; design: expressed in transfected cells; host or cells: CV-1 cells; conditions: CV-1 cells transfected with hFXR, hRXR, TK-ECRE-luc; 18 hrs incubation; luminescence; maximum efficacy <25% of Fexaramine control also classified '+'
T1 sequence (Q96RI1 1-486): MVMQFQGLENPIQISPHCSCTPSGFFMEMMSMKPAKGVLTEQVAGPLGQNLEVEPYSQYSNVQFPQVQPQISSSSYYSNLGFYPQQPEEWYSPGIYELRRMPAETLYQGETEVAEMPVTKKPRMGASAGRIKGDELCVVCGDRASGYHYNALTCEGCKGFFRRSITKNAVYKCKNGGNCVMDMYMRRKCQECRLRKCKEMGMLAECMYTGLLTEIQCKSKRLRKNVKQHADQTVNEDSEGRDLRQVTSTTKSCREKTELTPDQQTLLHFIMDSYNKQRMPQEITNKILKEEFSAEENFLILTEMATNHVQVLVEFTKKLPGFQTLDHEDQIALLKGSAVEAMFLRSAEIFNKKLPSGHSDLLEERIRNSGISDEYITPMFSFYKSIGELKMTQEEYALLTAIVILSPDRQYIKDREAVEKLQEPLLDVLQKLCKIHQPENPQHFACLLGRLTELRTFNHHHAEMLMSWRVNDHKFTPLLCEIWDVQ
T1 sequence (P19793 1-462 partner): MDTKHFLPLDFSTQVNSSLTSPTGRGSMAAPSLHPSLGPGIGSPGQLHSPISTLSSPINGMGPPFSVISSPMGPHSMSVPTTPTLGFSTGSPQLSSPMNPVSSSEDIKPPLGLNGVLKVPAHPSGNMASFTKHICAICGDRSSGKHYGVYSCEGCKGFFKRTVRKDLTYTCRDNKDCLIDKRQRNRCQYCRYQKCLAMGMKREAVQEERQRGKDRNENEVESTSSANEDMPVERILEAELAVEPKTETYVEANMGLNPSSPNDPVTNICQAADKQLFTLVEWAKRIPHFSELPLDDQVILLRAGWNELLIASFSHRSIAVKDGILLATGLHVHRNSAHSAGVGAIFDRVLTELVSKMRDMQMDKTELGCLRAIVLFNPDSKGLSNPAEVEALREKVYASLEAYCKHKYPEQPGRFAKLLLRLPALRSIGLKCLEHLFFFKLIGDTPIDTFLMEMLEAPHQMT
Procedure: Example B-2: In Vitro FXR Assay (TK)
CV-1 cells were seeded at a density of 2,000,000 cells in a T175 flask with DMEM+10% charcoal double-stripped FBS and incubated at 37° C. in 5% CO2 for 18 h (0/N).
After 18 h of incubation, the medium in the T175 flask was changed with fresh DMEM+10% charcoal super-stripped serum. In a polypropylene tube, 2500 μL OptiMEM (Life Technologies, Cat #31985-062) was combined with expression plasmids for hFXR, hRXR, TK-ECRE-luc and pCMX-YFP. The tube was then briefly vortexed and incubated at room temperature for 5 minutes. Transfection reagent (X-tremeGENE HP from Roche, Cat #06 366 236 001) was added to the OptiMEM/plasmid mixture vortexed and incubated at room temperature for 20 minutes. Following incubation, the transfection reagent/DNA mixture complex was added to cells in the T175 flask and the cells were incubated at 37° C. in 5% CO2 for 18 h (O/N).
Compounds were serially diluted in DMSO and added to transfected CV-1 cells. The cells were then incubated for 18 hrs. The next day cells were lysed and examined for luminescence.

[2] = target: T1, FXR; experiment: In Vitro FXR Assay (PGL3), luciferase reporter in transfected CV-1 cells; type: cell-based; design: plasmids XPD90Gal pCMXhFXRfl, pCMXhRXRfl+PGL3-ECRE*6-luc+CMX-YFP; expressed in transfected cells; host or cells: CV-1 cells; conditions: CV-1 cells transfected with hFXR, hRXR, PGL3-ECRE*6-luc; 18 hrs incubation; luminescence
Procedure: Example B-1: In Vitro FXR Assay (PGL3)
CV-1 cells were seeded at a density of 2,000,000 cells in a T175 flask with DMEM+10% charcoal double-stripped FBS and incubated at 37° C. in a 5% CO2 for 18 h (0/N).
After 18 h of incubation, the medium in the T175 flask was changed with fresh DMEM+10% charcoal super-stripped serum.
To prepare the transfection reaction mixture, the transfection reagent (X-tremeGENE HP from Roche, Cat #06 366 236 001) was added in to a 1.5 mL microcentrifuge tube labelled “A” at a ratio of 1:3 (DNA in μg: transfection reagent in μL). OptiMEM medium (Life Technologies, Cat #31985-062) was added accordingly to provide a total volume of 1 mL. The transfection reaction mixture was then briefly vortexed and incubated at room temperature for 5 minutes.
In a separate 1.5 mL microcentrifuge tube labelled “B”, 100 μL OptiMEM and plasmids XPD90Gal pCMXhFXRfl, pCMXhRXRfl+PGL3-ECRE*6-luc+CMX-YFP in the ratio 2 μg: 2 μg:18 μg:3 μg were added. This microcentrifuge tube “B” was then briefly vortexed and incubated at room temperature for 5 minutes.
The total volume in tube labelled “A” was then transferred in to tube labelled “B.” The mixture was then briefly vortexed and the transfection:DNA complex was then incubated for about 15-20 minutes at room temperature.
Following incubation, the transfection reagent/DNA mixture complex was then added to cells in the T175 flask and the cells were incubated at […] (0/N) at 37° C. in 5% CO2.
In a 96 well plate, a half logarithmic serial dilution was prepared. OptiMEM was used as the diluent. Using any of one of the compounds described herein, a compound stock solution of 10 mM was prepared. An initial 1:100 dilution was made into the first well for a final concentration of 100 μM. The final concentrations in the 96-well plate was prepared by using a multichannel pipette to transfer 5 μL of the diluted compound to 384-well plate in quadruplicate.
Cells in T175 flask were trypsinized and cells were resuspending in 40 mL phenol red free DMEM+10% charcoal super-stripped FBS. Typically, one T175 flask was sufficient to seed two 384 well plates. CV-1 cells were seeded at 45 μL cell suspension/well using a multi-channel pipet or a 384 multidrop dispenser. The cells were then incubated for 18 hrs, overnight.
After removing the plates from the incubator, the medium was flicked out of plate and 384 well plate was turned upside down onto paper towel. The remaining medium was gently tapped out. 15 μL lysis buffer was then added to each well using a multichannel pipet or a 384 well multi-drop dispenser. After incubation for 10 minutes at room temperature on shaker, 30 μL Luciferase buffer was added to each well. Luminescence counts were taken immediately using the Perkin Elmer Envision.
The ability of the compounds disclosed herein to […] FXR activity was quantified and the respective EC50 value was determined. Fex=fexaramine.

Row | pEC50 [1] | Cmpd/Fex (ratio of the EC50 for the test compound relative to the EC50 of the Fexaramine control) [2] | SMILES
1 | 5.00 to 6.00 | +++ (‘+++’ means Cmpd/Fex <10) | COC(=O)/C=C/c1cccc(N(Cc2ccc(-c3ccc(N(C)C)cc3)nc2)C(=O)C2CCCCC2)c1 [Compound 1, (E)-Methyl 3-(3-(N-((6-(4-(dimethylamino)phenyl)pyridin-3-yl)methyl)cyclohexanecarboxamido)phenyl)acrylate]
2 | ≥ 6.00 | +++ (‘+++’ means Cmpd/Fex <10) | COC(=O)/C=C/c1cccc(N(CC2CCN(c3ccc(N(C)C)cc3)CC2)C(=O)C2CCCCC2)c1 [Compound 2, (E)-Methyl 3-(3-(N-((1-(4-(dimethylamino)phenyl)piperidin-4-yl)methyl)cyclohexanecarboxamido)phenyl)acrylate]
3 | ≤ 5.00 | + (‘+’ means Cmpd/Fex >100) | COC(=O)/C=C/c1cccc(N(C[C@@H]2CCN(c3ccc(N(C)C)cc3)C2)C(=O)C2CCCCC2)c1 [Compound 3, (R,E)-Methyl 3-(3-(N-((1-(4-(dimethylamino)phenyl)pyrrolidin-3-yl)methyl)cyclohexanecarboxamido)phenyl) acrylate]
4 | 5.00 to 6.00 | ++ (‘++’ means Cmpd/Fex >10 & <100) | COC(=O)/C=C/c1cccc(N(C[C@H]2CCN(c3ccc(N(C)C)cc3)C2)C(=O)C2CCCCC2)c1 [Compound 4, (S,E)-Methyl 3-(3-(N-((1-(4-(dimethylamino)phenyl)pyrrolidin-3-yl)methyl)cyclohexanecarboxamido)phenyl) acrylate]
5 | ≤ 5.00 |  | COC(=O)/C=C/c1cccc(N(CC2CN(c3ccc(N(C)C)cc3)C2)C(=O)C2CCCCC2)c1 [Compound 4.1, (E)-Methyl 3-(3-(N-((1-(4-(dimethylamino)phenyl)azetidin-3-yl)methyl)cyclohexanecarboxamido)phenyl) acrylate]
6 | ≥ 6.00 | +++ (‘+++’ means Cmpd/Fex <10) | COC(=O)/C=C/c1cccc(N(CC2CCN(c3ccc(C)cc3)CC2)C(=O)C2CCCCC2)c1 [Compound 5, (E)-Methyl 3-(3-(N-((1-(p-tolyl)piperidin-4-yl)methyl)cyclohexanecarboxamido)phenyl)acrylate]
7 | ≤ 5.00 | + (‘+’ means Cmpd/Fex >100) | CN(C)c1ccc(N2CCC(CN(C(=O)C3CCCCC3)c3cccc(/C=C/C(=O)O)c3)CC2)cc1 [Compound 6, (E)-3-(3-(N-((1-(4-(Dimethylamino)phenyl)piperidin-4-yl)methyl)cyclohexanecarboxamido)phenyl)acrylic acid]
8 | 5.00 to 6.00 |  | COc1ccc([C@H]2CC[C@H](CN(C(=O)C3CCCCC3)c3cccc(/C=C/C(=O)O)c3)CC2)cc1C [Compound 6.1, trans-(E)-3-(3-(N-((4-(4-Methoxy-3-methylphenyl)cyclohexyl)methyl)cyclohexanecarboxamido)phenyl)acrylic acid]
9 | ≥ 6.00 |  | COC(=O)/C=C/c1cccc(N(C[C@H]2CC[C@H](c3ccc(OC)c(C)c3)CC2)C(=O)C2CCCCC2)c1 [Compound 8, trans-(E)-Methyl 3-(3-(N-((4-(4-methoxy-3-methylphenyl)cyclohexyl)methyl)cyclohexanecarboxamido)phenyl)acrylate]
10 | ≥ 6.00 |  | COC(=O)/C=C/c1cccc(N(C[C@H]2CC[C@H](c3ccc(OC)c(C)c3)CC2)C(=O)CC(C)(C)C)c1 [Compound 9, trans-(E)-Methyl 3-(3-(N-((4-(4-methoxy-3-methylphenyl)cyclohexyl)methyl)-3,3-dimethylbutanamido)phenyl)acrylate]
11 | ≥ 6.00 |  | COc1ccc([C@H]2CC[C@H](CN(C(=O)C3CCCCC3)c3cccc(/C=C/C(=O)OC(C)C)c3)CC2)cc1C [Compound 10, trans-(E)-Isopropyl 3-(3-(N-((4-(4-methoxy-3-methylphenyl)cyclohexyl)methyl)cyclohexanecarboxamido)phenyl)acrylate]
12 | ≥ 6.00 |  | COc1ccc([C@H]2CC[C@H](CN(C(=O)CC(C)(C)C)c3cccc(/C=C/C(=O)OC(C)C)c3)CC2)cc1C [Compound 11, trans-(E)-Isopropyl 3-(3-(N-((4-(4-methoxy-3-methylphenyl)cyclohexyl)methyl)-3,3-dimethylbutanamido)phenyl)acrylate]
13 | ≤ 5.00 |  | COC(=O)/C=C/c1cccc(N(C[C@H]2CC[C@@H](c3ccc(OC)c(C)c3)CC2)C(=O)C2CCCCC2)c1 [Compound 12, cis-(E)-Methyl 3-(3-(N-((4-(4-methoxy-3-methylphenyl)cyclohexyl)methyl)cyclohexanecarboxamido)phenyl)acrylate]
14 | ≥ 6.00 |  | COc1ccc([C@H]2CC[C@H](CN(c3cccc(/C=C/C(=O)OC(C)C)c3)C(=O)[C@H]3CC[C@H](O)CC3)CC2)cc1C [Compound 13, trans-(E)-Isopropyl 3-(3-(trans-4-hydroxy-N-((4-(4-methoxy-3-methylphenyl)cyclohexyl)methyl)cyclohexanecarboxamido)phenyl)acrylate]
15 | ≥ 6.00 |  | COC(=O)/C=C/c1cccc(N(C[C@H]2CC[C@H](c3ccc(OC)c(C)c3)CC2)C(=O)[C@H]2CC[C@H](O)CC2)c1 [Compound 14, trans-(E)-Methyl 3-(3-(trans-4-hydroxy-N-((4-(4-methoxy-3-methylphenyl)cyclohexyl)methyl)cyclohexanecarboxamido)phenyl)acrylate]
